The assay concerns GMDCs. The assay can be described thus: Cytokine production by GMDCs. It is filed as cell-based, mice. The settings on record: 200 nM, 24 h, ELISA; SUP3 versus Pam3. The procedure: Splenic DCs (5 × 10^5 cells/mL) were stimulated by Pam3 (200 nM), SUP3 (200 nM), or CpG ODN 1668 (20 nM; Adipogen IAX-200-001) in the GM-CSF (20 ng/mL) supplemented medium for indicated periods. Cell culture supernatants were harvested at indicated time points and stored at −40°C. RAW 264.7 cells and GMDCs were stimulated by lipopolysaccharide (LPS) (20 ng/mL; Adipogen IAX-100-013), Pam3, or SUP3 (both at 200 nM) for 24 h. For in vivo administration, Pam3 (2 nmol per mouse), SUP3 (2 nmol per mouse), or LPS (1 µg per mouse) were intravenously (i.v.) injected via tail veins. Serum was obtained through tail vein bleeding and centrifuged after coagulation and stored at −40°C. Cytokines (IL-6, eBioscience 88-7064; TNFα, eBioscience 88-7324; IL-12p40, BioLegend 431604), chemokine (MIP1α, R&D Systems DY450-05), and total IgM (eBioscience, 88-50470) were quantified by ELISA kits following the instructions of manufacturers.
Figure 1 Specificity and activity of novel TLR2 agonist SUP3. (A) Schematic chemical structure of SUP3. (B) Surface expression of TLR2 in wild-type (WT) and Tlr2^−/− RAW 264.7 cell lines. Gray shadows represented isotype control and black lines represented TLR2. […] The production of cytokines IL-6 and TNFα in culture supernatant was determined by ELISA. *p < 0.05, ****p < 0.0001, “n.s.” indicates statistically non-significant.
For orientation: ELISA stands for enzyme-linked immunosorbent assay.

Where a SMILES comes first, the peptide text is derived from it. The star is where a group is joined. X1 = CCCCCCCCCCCCCCNC(=O)OC[C@H](C*)OC(=O)NCCCCCCCCCCCCCC; Palmitoyl = CCCCCCCCCCCCCCCC(=O)*

On to `CCCCCCCCCCCCCCCC(=O)N[C@@H](CSC[C@@H](COC(=O)NCCCCCCCCCCCCCC)OC(=O)NCCCCCCCCCCCCCC)C(=O)NCC(=O)N[C@@H](CCCCN)C(=O)N[C@@H](CCCCN)C(=O)N[C@@H](CCCCN)C(=O)O` [SUP3, (2S,5S,8S,14R,18R)-2,5,8-tris(4-aminobutyl)-4,7,10,13,21-pentaoxo-14-palmitamido-18-((tetradecylcarbamoyl)oxy)-20-oxa-16-thia-3,6,9,12,22-pentaazahexatriacontan-1-oic acid] (Palmitoyl-C(X1)GKKK-OH), for which the “production of IL-6 and TNFα by GMDCs” value was “comparable”.

The values are drawn from paper PMC5318439, “The Novel Toll-Like Receptor 2 Agonist SUP3 Enhances Antigen Presentation and T Cell Activation by Dendritic Cells” (Frontiers in Immunology, 2017).
